Test results as given in ChEMBL document CHEMBL1152187, “Synthesis of C4-fluorinated solamins and their growth inhibitory activity against human cancer cell lines” (2008).

Key:
Assay type in all cases: functional
[1] = system: PC-3; test: Growth inhibition of human PC3 cells by sulforhodamine B assay
[2] = system: SF-268; test: Growth inhibition of human SF268 cells by sulforhodamine B assay
[3] = system: SF-539; test: Growth inhibition of human SF539 cells by sulforhodamine B assay
[4] = Growth inhibition of human HBC5 cells by sulforhodamine B assay
[5] = system: OVCAR-3; test: Growth inhibition of human OVCAR-3 cells by sulforhodamine B assay
[6] = system: MKN-74; test: Growth inhibition of human MKN74 cells by sulforhodamine B assay
[7] = system: HCT-15; test: Growth inhibition of human HCT15 cells by sulforhodamine B assay
[8] = system: MDA-MB-231; test: Growth inhibition of human MDA-MB-231 cells by sulforhodamine B assay
[9] = Growth inhibition of human RXF631L cells by sulforhodamine B assay; conditions: RXF 631
[10] = Growth inhibition of human BSY1 cells by sulforhodamine B assay; conditions: BSY-1
[11] = Growth inhibition of human HBC4 cells by sulforhodamine B assay
[12] = system: NCI-H226; test: Growth inhibition of human NCI-H226 cells by sulforhodamine B assay
[13] = Growth inhibition of human MKN1 cells by sulforhodamine B assay; conditions: MKN-1
[14] = system: MKN-45; test: Growth inhibition of human MKN45 cells by sulforhodamine B assay
[15] = system: OVCAR-8; test: Growth inhibition of human OVCAR8 cells by sulforhodamine B assay
[16] = system: HCT-116; test: Growth inhibition of human HCT116 cells by sulforhodamine B assay
[17] = system: A549; test: Growth inhibition of human A549 cells by sulforhodamine B assay
[18] = system: LOX IMVI; test: Growth inhibition of human LOXIMVI cells by sulforhodamine B assay
[19] = system: HCC 2998; test: Growth inhibition of human HCC2998 cells by sulforhodamine B assay
[20] = system: HT-29; test: Growth inhibition of human HT-29 cells by sulforhodamine B assay
[21] = system: OVCAR-4; test: Growth inhibition of human OVCAR4 cells by sulforhodamine B assay
[22] = system: DMS-273; test: Growth inhibition of human DMS273 cells by sulforhodamine B assay
[23] = system: NCI-H23; test: Growth inhibition of human NCI-H23 cells by sulforhodamine B assay
[24] = system: SK-OV-3; test: Growth inhibition of human SKOV3 cells by sulforhodamine B assay
[25] = system: DMS-114; test: Growth inhibition of human DMS114 cells by sulforhodamine B assay
[26] = system: NCI-H460; test: Growth inhibition of human NCI-H460 cells by sulforhodamine B assay
[27] = system: NCI-H522; test: Growth inhibition of human NCI-H522 cells by sulforhodamine B assay
[28] = system: SF-295; test: Growth inhibition of human SF295 cells by sulforhodamine B assay
[29] = system: OVCAR-5; test: Growth inhibition of human OVCAR5 cells by sulforhodamine B assay
[30] = system: U-251; test: Growth inhibition of human U251 cells by sulforhodamine B assay
[31] = system: St-4; test: Growth inhibition of human St-4 cells by sulforhodamine B assay
[32] = system: SNB-75; test: Growth inhibition of human SNB75 cells by sulforhodamine B assay
[33] = system: MKN-7; test: Growth inhibition of human MKN7 cells by sulforhodamine B assay
[34] = system: DU-145; test: Growth inhibition of human DU145 cells by sulforhodamine B assay
[35] = system: MCF7; test: Growth inhibition of human MCF7 cells by sulforhodamine B assay
[36] = system: MKN-28; test: Growth inhibition of human MKN28 cells by sulforhodamine B assay
[37] = system: SNB-78; test: Growth inhibition of human SNB-78 cells by sulforhodamine B assay
[38] = system: ACHN; test: Growth inhibition of human ACHN cells by sulforhodamine B assay
[39] = system: KM12; test: Growth inhibition of human KM12 cells by sulforhodamine B assay

Row | GI50 [1] | GI50 [5] | GI50 [6] | GI50 [7] | GI50 [8] | GI50 [12] | GI50 [14] | GI50 [15] | GI50 [16] | GI50 [17] | GI50 [19] | GI50 [20] | Structure (SMILES) | GI50 [2] | GI50 [3] | GI50 [4] | GI50 [9] | GI50 [10] | GI50 [11] | GI50 [13] | GI50 [18] | also measured
1 | 84 µM | > 100 µM | > 100 µM | > 100 µM | > 100 µM | 40 µM | 43 µM | > 100 µM | 27 µM | > 100 µM | > 100 µM | 92 µM | CCCCCCCCCCCC[C@@H](O)[C@H]1CC[C@H]([C@H](O)CCCCCCCCCC[C@H](F)CC2=C[C@H](C)OC2=O)O1 | > 100 µM | > 100 µM | > 100 µM | > 100 µM | 69 µM | > 100 µM | > 100 µM | 97 µM | GI50 [21]: > 100 µM; GI50 [22]: > 100 µM; GI50 [23]: 5.1 µM; GI50 [24]: > 100 µM; GI50 [25]: 0.46 µM; GI50 [26]: > 100 µM; GI50 [27]: 16 µM; GI50 [28]: 31 µM; GI50 [29]: > 100 µM; GI50 [30]: > 100 µM; GI50 [31]: > 100 µM; GI50 [32]: 58 µM; GI50 [33]: 19 µM; GI50 [34]: > 100 µM; GI50 [35]: 37 µM; GI50 [36]: > 100 µM; GI50 [37]: > 100 µM; GI50 [38]: > 100 µM; GI50 [39]: > 100 µM
2 | > 100 µM | > 100 µM | > 100 µM | > 100 µM | > 100 µM | 58 µM | > 100 µM | 62 µM | 2 µM | > 100 µM | > 100 µM | > 100 µM | CCCCCCCCCCCC[C@@H](O)[C@H]1CC[C@H]([C@H](O)CCCCCCCCCC[C@@H](F)CC2=C[C@H](C)OC2=O)O1 | > 100 µM | > 100 µM | > 100 µM | > 100 µM | > 100 µM | > 100 µM | > 100 µM | 6.5 µM | GI50 [21]: > 100 µM; GI50 [22]: > 100 µM; GI50 [23]: 23 µM; GI50 [24]: > 100 µM; GI50 [25]: 0.26 µM; GI50 [26]: > 100 µM; GI50 [27]: 25 µM; GI50 [28]: 37 µM; GI50 [29]: > 100 µM; GI50 [30]: > 100 µM; GI50 [31]: 74 µM; GI50 [32]: 84 µM; GI50 [33]: 0.96 µM; GI50 [34]: > 100 µM; GI50 [35]: 56 µM; GI50 [36]: 41 µM; GI50 [37]: > 100 µM; GI50 [38]: > 100 µM; GI50 [39]: > 100 µM
3 | 17 µM | 6.9 µM | 4.6 µM | 51 µM | > 100 µM | 29 µM | > 100 µM | 38 µM | 3.7 µM | 96 µM | > 100 µM | > 100 µM | CCCCCCCCCCCC[C@@H](O)[C@H]1CC[C@H]([C@H](O)CCCCCCCCCC[C@@H](O)CC2=C[C@H](C)OC2=O)O1 [MURISOLIN] | > 100 µM | 88 µM | 9.7 µM | 40 µM | 8.3 µM | > 100 µM | 20 µM | 1.9 µM | GI50 [21]: 6.9 µM; GI50 [22]: 72 µM; GI50 [23]: 0.22 µM; GI50 [24]: > 100 µM; GI50 [25]: < 0.01 µM; GI50 [26]: > 100 µM; GI50 [27]: 3.6 µM; GI50 [28]: 7.3 µM; GI50 [29]: > 100 µM; GI50 [30]: 7.3 µM; GI50 [31]: 41 µM; GI50 [32]: 39 µM; GI50 [33]: 0.7 µM; GI50 [34]: > 100 µM; GI50 [35]: 3.9 µM; GI50 [36]: 2.8 µM; GI50 [37]: 78 µM; GI50 [38]: > 100 µM; GI50 [39]: > 100 µM

Row | Structure (SMILES) | GI50 [1] | GI50 [5] | GI50 [6] | GI50 [7] | GI50 [8] | GI50 [12] | GI50 [14] | GI50 [15] | GI50 [16] | GI50 [17] | GI50 [19] | GI50 [20] | GI50 [2] | GI50 [3] | GI50 [4] | GI50 [9] | GI50 [10] | GI50 [11] | GI50 [13] | GI50 [18] | also measured
4 | CCCCCCCCCCCC[C@@H](O)[C@H]1CC[C@H]([C@H](O)CCCCCCCCCCCCC2=C[C@H](C)OC2=O)O1 [REL-SOLAMIN] | > 100 µM | > 100 µM | > 100 µM | > 100 µM | > 100 µM | > 100 µM | > 100 µM | > 100 µM | > 100 µM | > 100 µM | > 100 µM | > 100 µM | > 100 µM | > 100 µM | > 100 µM | > 100 µM | > 100 µM | > 100 µM | > 100 µM | 29 µM | GI50 [21]: > 100 µM; GI50 [22]: > 100 µM; GI50 [23]: 73 µM; GI50 [24]: > 100 µM; GI50 [25]: 4.3 µM; GI50 [26]: > 100 µM; GI50 [27]: 58 µM; GI50 [28]: 40 µM; GI50 [29]: > 100 µM; GI50 [30]: > 100 µM; GI50 [31]: > 100 µM; GI50 [32]: > 100 µM; GI50 [33]: 13 µM; GI50 [34]: > 100 µM; GI50 [35]: 71 µM; GI50 [36]: 14 µM; GI50 [37]: > 100 µM; GI50 [38]: > 100 µM; GI50 [39]: > 100 µM
